Assay results: US20260199350A1, “FLAVONES, QUINOLINONES, QUINAZOLINONES, AND AURONES, AND USES IN CK2-MEDIATED DISEASES” (Salk Institute for Biological Studies, priority 2022, published 2026)
Entries after “also recorded” stand apart in the source; their conditions may differ.

How the values were obtained:
[1] = test system: IL-6 and TNFAIP2; assay: IL-6 and TNFAIP2 induction in AD patient-derived astrocytes; assay type: cell-based, human; conditions: IL1-β
[2] = test system: human iPSC-derived microglia; assay: Cytokine release assay in LPS-stimulated iPSC-derived microglia; assay type: cell-based; conditions: 20 μM, panel of 36 cytokines, p<0.05
Protocol: Cytokine release assay. […] Subsequently, media cleared of cells and debris was collected, snap-frozen and stored at −80° C. until processing with the Human Cytokine Array kit (R&D Systems, Catalog #ARY005). Briefly, media was diluted in Array Buffer 4 and incubated with a cocktail of biotinylated detection antibodies for 1 h at room temperature with rocking. The resulting immunocomplexes were incubated with nitrocellulose membranes spotted with capture antibodies overnight at 4° C. (see below for full list of targets). The membranes were washed 4× with Wash Buffer, then incubated with IRDye 800CW Streptavidin for 30 minutes at room temperature (1:2000 in Array Buffer 5, LI-COR #926-32230). The membranes were washed 4× and imaged with an Odyssey CLx instrument. Intensity for each spot was quantified with ImageStudio. Technical duplicate values for each target were averaged, and differential cytokine release by microglia exposed to LPS+vehicle versus vehicle only was determined (n=2 biological replicates, two-tailed t-tests, P<0.05).

[3] = test system: IL-6, IL-8, TNF-α, and MCP-1; assay: Flow cytometry assay of cytokine production in HCA; assay type: cell-based, human; conditions: 20 μM compound, 10 ng/mL IL1-β
Protocol: Flow cytometry. For each well of HCA in a 6-well plate, 2 mL of fresh media with GolgiPLUG (BD #555029, 1:1000) and GolgiSTOP (BD #554724, 1:1000) with 20 μM compound or vehicle (DMSO) and IL1b 10 ng/mL or DPBS was added. The cells were incubated for 5 h at 37° C. Cells were collected with TrypLE and plated into a 96-well V-bottom plate for staining. The plate was centrifuged for 5 min, 1300 rpm, 4° C. to pellet cells, which were subsequently resuspended in 100 μL DPBS with 1 μL Zombie Violet (Biolegend #4231 13) and 5 μL Human Trustain FC block (Biolegend #422302) per well for 15 min at room temperature in the dark. The plate was centrifuged, supernatant was aspirated, and the cells were washed with 100 μL/well DPBS. Cells were fixed with 100 μL/well of Cytofix/Cytoperm (BD) for 20 min at 4° C. The plate was centrifuged, supernatant was aspirated, and cells were resuspended in 100 μL Permwash (BD) and incubated for 15 min at 4° C. The plate was centrifuged, supernatant was aspirated, and cells were incubated with 100 μL/well of Ab mix or isotype mix in Permwash (see below) for 20 min at 4° C., followed by centrifugation and 2× PermWash washes. The cells were resuspended in 100 μL DPBS and transferred to FACS tubes containing 200 ul of PBS (total volume per tube 300 μL) for analysis on FACS Analyzers (LSRII or Fortessa).
A flow cytometry-based assay was used to assess the anti-inflammatory activity of several natural flavonoid compounds (FIG. 1A) and build corresponding structure-activity relationships. Primary human cerebellar astrocytes (HCA) were co-treated with 20 μM of each compound or vehicle (DMSO), 10 ng/mL IL1-β, and a protein transport inhibitor for 6 hours, and then processed for intracellular staining of pro-inflammatory cytokines IL-6, IL-8, TNF-α, and MCP-1. The presence of a C2-C3 double bond was the predominant determining factor for anti-inflammatory activity. […] There was no cytotoxicity associated with flavone treatment (FIG. 1E).

[4] = test system: IL-6 secretion; assay: IL-6 secretion assay in astrocytes (Promega Lumit IL-6 kit); assay type: cell-based, human; conditions: astrocytes and microglia; FIG. 2D, FIG. 1C
Method in brief: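 Human astrocytes (HCAs), 20,000 per well, cultured 2-3 days, then stimulated with 10 ng/mL IL1B alongside compound dilution series. IL-6 secreted over 5 h quantified by Lumit IL-6 luminescent immunoassay.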

[5] = test system: microglial phagocytosis; assay: Microglial phagocytosis assay (pHrodo E. coli beads); assay type: cell-based, human; conditions: 20 μM, P=0.0015
Protocol: Phagocytosis assay. […] (2-3 biological replicates). Then, 0.5 μL of pHrodo E. Coli-FITC beads (Thermo Fisher, P35366) was added per well with gentle mixing and the cells were incubated for another 4 hours. pHrodo beads only fluoresce when they are internalized in cells. Cells were then collected by scraping, washed with FACS buffer (1×DPBS, 2% BSA, and 0.05 mM EDTA pH 8.0), and counter-stained with Zombie Violet to assess viability. Live cells were analyzed on the FACS Canto instrument for geometric mean fluorescence on the FITC channel. The background FITC fluorescence value (pHrodo beads only) was subtracted from each mean, and fold-change was computed across experimental groups.

[6] = test system: CK2α1 and CK2α2; assay: CK2 protein levels by Western in IL1-β-stimulated astrocytes; assay type: cell-based, human; conditions: after 5 hours
Protocol: Western blotting. For drug treatment assays, cells were treated with vehicle (DMSO) or 20 μM compound and stimulated with IL1B 10 ng/mL for 1 h, 6 h, or 24 h. Cells were dissociated with 1:1 Accutase:papain for 3 min at rt, pelleted for 5 min at 800 g, and washed twice with cold DPBS. […] Protein concentration was determined by BCA assay (Thermo Fisher). […] The blots were incubated with primary antibodies overnight at 4° C. in PBS containing 0.1% casein and 0.2% Tween-20. […] The membranes were washed 5× with 0.1% PBS-Tween20 (PBST) and incubated with secondary antibodies (1:20,000) for 1 h at rt in PBS with 0.1% casein, 0.2% Tween20, and 0.1% SDS. […] The blots were then washed 4× with PBST and 1× with DPBS. The blots were imaged using the Odyssey CLx imaging system and blots were analyzed on the ImageStudio software (LI-COR).

In the case of `COc1cc(-c2cc(=O)c3c(O)cc(O)cc3o2)ccc1O` [CHR, Chrysoeriol], the “Hyperinflammatory phenotype (IL-6 and TNFAIP2 induction)” value [1] is reported as “mitigated”, the “Release of LPS-induced pro-inflammatory cytokines” value [2] is reported as “significantly blocked” and the “IL1-β-induced IL-6, IL-8, TNF-α, MCP-1 cytokine upregulation” value [3] is reported as “active; also recorded: strong suppressive activity”. The “Anti-inflammatory effects, dose dependence” value [4] was “dose-dependent”, the “Microglial phagocytosis of pHrodo E. coli beads” value [5] was “blocked” and the “CK2α1 and CK2α2 levels” value [6] was “reduced to baseline”.
